{"source": "paper PMC4067310", "about": "“From Pan-Reactive KV7 Channel Opener to Subtype Selective Opener/Inhibitor by Addition of a Methyl Group” (PLoS ONE, 2014)", "origin": "cited, not measured here", "key": {"KV7.4-W242L": {"target": "T1, KV7.4-W242L (Homo sapiens, UniProt P56696, W242L)", "T1 construct": "expressed in transfected cells; host or cells: Xenopus laevis oocytes injected with cRNA (pGEM-HE vector)", "T1 sequence (P56696 1-695 W242L)": "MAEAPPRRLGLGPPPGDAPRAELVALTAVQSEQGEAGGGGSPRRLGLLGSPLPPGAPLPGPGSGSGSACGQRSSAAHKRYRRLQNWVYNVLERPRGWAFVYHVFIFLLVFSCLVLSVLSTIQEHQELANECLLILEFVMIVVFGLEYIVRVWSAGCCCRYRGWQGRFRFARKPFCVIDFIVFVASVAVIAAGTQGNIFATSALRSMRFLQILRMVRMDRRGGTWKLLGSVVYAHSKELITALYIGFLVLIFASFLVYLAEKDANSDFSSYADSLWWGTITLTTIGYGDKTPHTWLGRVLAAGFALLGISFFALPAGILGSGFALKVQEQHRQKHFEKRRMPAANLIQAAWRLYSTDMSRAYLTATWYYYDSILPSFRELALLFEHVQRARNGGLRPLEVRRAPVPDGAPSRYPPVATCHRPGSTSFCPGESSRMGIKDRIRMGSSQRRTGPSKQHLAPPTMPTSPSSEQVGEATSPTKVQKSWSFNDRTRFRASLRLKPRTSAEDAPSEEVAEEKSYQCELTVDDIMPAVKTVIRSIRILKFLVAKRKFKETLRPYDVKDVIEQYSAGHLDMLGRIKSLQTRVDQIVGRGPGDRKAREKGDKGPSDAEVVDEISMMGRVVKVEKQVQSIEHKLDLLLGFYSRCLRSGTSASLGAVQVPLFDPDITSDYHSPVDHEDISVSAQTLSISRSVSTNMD", "conditions": "cited from earlier work"}, "KV7.2-W236L": {"target": "T2, KV7.2-W236L (Homo sapiens, UniProt O43526, W236L)", "T2 construct": "expressed in transfected cells; host or cells: Xenopus laevis oocytes injected with cRNA (pGEM-HE vector)", "T2 sequence (O43526 whole entry W236L)": "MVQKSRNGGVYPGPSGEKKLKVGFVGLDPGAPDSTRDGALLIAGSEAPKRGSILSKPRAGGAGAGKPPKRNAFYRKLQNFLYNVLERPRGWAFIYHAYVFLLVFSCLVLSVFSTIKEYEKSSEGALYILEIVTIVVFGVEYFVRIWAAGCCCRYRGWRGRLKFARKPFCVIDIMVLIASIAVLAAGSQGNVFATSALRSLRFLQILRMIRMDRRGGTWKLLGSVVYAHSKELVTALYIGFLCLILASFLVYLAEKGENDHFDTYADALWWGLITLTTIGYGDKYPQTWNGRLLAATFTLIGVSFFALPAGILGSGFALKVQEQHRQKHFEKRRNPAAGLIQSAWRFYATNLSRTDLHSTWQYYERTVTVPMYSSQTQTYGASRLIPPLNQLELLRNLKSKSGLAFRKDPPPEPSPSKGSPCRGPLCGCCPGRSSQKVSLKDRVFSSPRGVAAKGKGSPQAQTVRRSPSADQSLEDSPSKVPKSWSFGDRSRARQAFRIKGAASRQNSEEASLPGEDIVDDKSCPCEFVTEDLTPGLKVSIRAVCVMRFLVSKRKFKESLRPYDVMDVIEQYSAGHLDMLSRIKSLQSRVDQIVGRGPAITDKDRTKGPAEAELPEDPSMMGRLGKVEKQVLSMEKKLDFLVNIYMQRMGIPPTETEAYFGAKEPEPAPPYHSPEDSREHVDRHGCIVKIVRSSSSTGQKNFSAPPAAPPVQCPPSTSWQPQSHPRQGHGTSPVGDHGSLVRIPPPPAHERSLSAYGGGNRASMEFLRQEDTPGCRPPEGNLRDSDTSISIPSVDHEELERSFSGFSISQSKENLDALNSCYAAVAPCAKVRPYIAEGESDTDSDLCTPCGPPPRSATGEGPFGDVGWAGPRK", "set-up": "method as in PMID 20011514", "conditions": "all activating effects lost; cited from earlier work"}, "KV7.4": {"target": "T3, KV7.4 (Homo sapiens, UniProt P56696)", "T3 construct": "expressed in transfected cells; host or cells: Xenopus laevis oocytes injected with cRNA (pGEM-HE vector)", "T3 sequence (P56696 1-695)": "T1 sequence (P56696 1-695 W242L) with L242W", "set-up": "method as in PMID 20011514", "conditions": "+40 mV; cited from earlier work"}}, "note": "Substitutions are numbered along the chain they refer to."}
{"smiles": "C[C@H](NC(=O)/C=C/c1ccccc1F)c1ccc2c(c1)N(CC1CC1)CCO2", "note": "[(S)-2]", "values": [{"measurement": "effect on KV7.4-W242L", "setting": "KV7.4-W242L", "value": "fully insensitive"}, {"measurement": "effect on KV7.2-W236L", "setting": "KV7.2-W236L", "value": "purely inhibitory"}, {"measurement": "efficacy, current amplitude % of control", "setting": "KV7.4", "value": "1927 % of control"}]}
